Values of other authors, collected in US7364905B2, “Apparatus and method for high throughput analysis of compound-membrane interactions” (TechElan, LLC, priority 2001, dated 2008).

Test system: Caco-2 cells
Conditions: Caco-2 cell mono-layer versus gut

SMILES: OC[C@@H](O)[C@@H](O)[C@H](O)[C@H](O)CO [mannitol]
- rate of permeation through the cell mono-layer relative to through the gut: fifty to three hundred and sixty times lower
